Source: US6495590B1, “Use of amtolmetin guacyl for the production of anti-inflammatory drugs for intestinal inflammations” (Medosan Ricerca S.r.l., priority 1998, dated 2002)

What was measured:
[1] = tested on: rabbit PRP (plasma rich in platelets); assay: Platelet aggregation on rabbit PRP, agonist arachidonic acid sodium salt; assay type: cell-based; conditions: Oryctolagus cuniculus
Protocol: (§1) Male New Zealand rabbits, 2000-3000 g [Stefano Morini, S. Polo D'Enza, RE Italy], quarantined for 5 days prior beginning of the trial (anti-piatelet effect). Male Wistar rats, 250±20 g [IFFA CREDO, Italy] randomized, divided into groups of 5 animals each and fasted for 16 h prior to treatment (thromboanemia determination).
(§2) Blood was intracardially collected from rabbits, using as anticoagulant sodium citrate at a final concentration of 0.38% and centrifuged for 15′ at 150 g in order to obtain a plasma rich in platelets (PRP). PRP was used at a concentration of 3.5×10^8 platelet/ml. MED 15 and reference products were incubated with the PRP for 3′ at 37 C° prior to addition of the aggregating agent. Platelet aggregation induced by arachidonic acid, sodium salt [TAC (threshold aggregation concentration): 140 μm] and collagen (TAC: 28 μg/ml) was measured using an aggregometer (Chronolog model 500) according to the Born's method ([…]. Nature 1962; 194: 927-929) and was expressed as inhibition percentage with respect to the agonist mean response.

[2] = tested on: rabbit PRP (plasma rich in platelets); assay: Platelet aggregation on rabbit PRP, agonist collagen; assay type: cell-based; conditions: Oryctolagus cuniculus
Protocol: as §1, §2

TXB2 plasma levels = assay: TXB2 (thromboxane) determination in rat; assay type: in vivo; conditions: for TXB2 ng/ml ± S.E. / inhibition at 100 mg/kg: 100 mg/kg per os, blood 3 h after treatment; for TXB2 ng/ml ± S.E.: controls 174.1 ± 42.6; for inhibition at 100 mg/kg: po, vs controls; for % inhibition of TXB2 plasma levels: kinetics
Protocol: as §1
The animals received per OS 100 mg/kg (1.5 ml/rat) MED 15 and (acetyl salicylic acid) suspended in 1% CMC, and controls received the vehicle only. […] Tromboxane content was determined in the serum thus obtained using a RIA kit [Amersham TRK780]. The results obtained can be evaluated with reference to the following tables and figures.

[3] = tested on: acetic acid-induced colitis; assay: Acetic acid-induced colitis; assay type: in vivo, rat; conditions: MED 15 100 mg/Kg per os at T-48 h, -24 h, -2 h; acetic acid controls 949±66
Protocol: (§3) Male Wistar rats, 180±20g quarantined for at least 5days and fasted for 18 h prior to the beginning of the trial (on a grid to avoid coprophagy) with free access to water.
Colitis was induced in animals by administration of 5% acetic acid (1.5 ml/rat) in the distal colon lumen with an 8 cm cannula at T=0.
MED 15 (100 mg/Kg per os) was administered at T−48 h, −24 h and −2 h.
24 h after colitis induction, animals were killed by cervical dislocation and the colon removed and washed in physiological solution at pH 7.4, was examined for damage evaluation.
(§4) Considered parameters are:
malondialdehyde (MDA), oxidative process indicator.
(§5) data were evaluated by Student's t-test

TNB-induced colitis = assay: TNB-induced colitis; assay type: in vivo, rat; conditions: MED 15 100 mg/Kg per os T=0, +1, +2, +3 days
Protocol: as §3
Colitis was induced in animals by administration of 15 mg TNB (trinitrobenzosulphonic acid) in 0.25 ml of 30% ethanol in the colon lumen and with an 8 cm cannula at T=0.
MED 15 (100 mg/Kg per os in 1% CMC) was administered to:
5 h after the last administration the animals were killed by cervical dislocation, the colon (8 cm distal portion) removed for damage evaluation.
as §4
myeloperoxidase (MPO), neutrophil indicator;
as §5

human ulcerative colitis = assay: Double-blind, controlled, randomized clinical trial in ulcerative colitis; assay type: in vivo; conditions: MED 15 1200 mg/day plus 5-aminosalicylic acid, 60 days, vs 5-ASA plus placebo
Protocol: A double-blind, controlled, randomized study was carried out in patients affected by two simultaneous pathologies: ulcerative colitis and osteoarticolar disease (osteoarthritis, rheumatoid arthritis, extra-articular rheumatism).
20 patients were divided into 2 homogeneous groups of 10 patients each (Group A and Group B):
Group A was treated with 5-aminosalicylic acid 1200 mg/day and placebo
Group B was treated with 5-aminosalicylic acid […] and MED 15 1200 mg/day
The following clinical evaluations were performed at the beginning of the study (T0), T15, T30, and T60 (end of therapy):
1) endoscopic examination of intestinal mucosa
2) annotation of symptomatology referred by the patients.
The severity of these parameters was expressed by a score as follows: […]

[4] = tested on: indomethacin-induced small intestine inflammation; assay: Indomethacin-induced small intestine inflammation; assay type: in vivo, rat
Protocol: as §3
The animals were treated with indomethacin (7.5 mg/Kg by subcutaneous administration in NaHCO3 5%) at T=0 and T=+1 day.
MED 15 (100 mg/Kg per os in 1% CMC) was administered according to two different treatments:
Scheme no. 1: T=0, +1 and 2 days
Scheme no. 2: T=0, +1, +2, +5, +6, +7 days
24 h after the last administration the animals were killed by cervical dislocation; the small intestine (from the pylorus to the ileocecal valve), removed and opened lengthwise, was washed in physiological solution at pH 7.4 for damage evaluation.
Considered parameters are: […]
myeloperoxidase (MPO), neutrophil indicator; malondialdehyde (MDA), oxidative process indicator. data were evaluated by Student's t-test

CC(=O)Oc1ccccc1C(=O)O [ASA, acetylsalicylic acid, reference compound] showed an inhibition at 25 µM ([1]; 25.0 μM) of 0%, an inhibition at 50 µM ([1]; 50.0 μM) of 83.3 ± 16.7% and an inhibition at 100 µM ([1]; 100.0 μM) of 100%. It also gave an inhibition at 12.5 µM ([2]; 12.5 μM) of 18.4 ± 10.5%, an inhibition at 25 µM ([2]; 25.0 μM) of 33.7 ± 2.1% and an inhibition at 50 µM ([2]; 50.0 μM) of 70.4 ± 14.9%. The inhibition at 100 µM ([2]; 100.0 μM) was 100%, the “TXB2 ng/ml ± S.E.” value (TXB2 plasma levels) was 2.9 ± 1.1 ng/mL and the inhibition at 100 mg/kg (TXB2 plasma levels) was 98.3%.

COc1ccccc1OC(=O)CNC(=O)Cc1ccc(C(=O)c2ccc(C)cc2)n1C [MED 15, 2-metoxyphenyl-1-methyl-5-p-methylbenzoyl-pirrol-2-acetamido acetate] gave a malondialdehyde levels [3] of 719 ± 60 nmol/g, an inhibition at 0.5 µM ([1]; 0.5 μM) of 7.7% and an inhibition at 1.25 µM ([1]; 1.25 μM) of 100%. It also gave an inhibition at 2.5 µM ([1]; 2.5 μM) of 100%, an inhibition at 5 µM ([1]; 5.0 μM) of 100% and an inhibition at 0.05 µM ([2]; 0.05 μM) of 0%. For the same compound, the inhibition at 0.1 µM ([2]; 0.10 μM) was 34.3%, the inhibition at 0.39 µM ([2]; 0.39 μM) was 100% and the “colon walls weight, change compared to TNB control” value (TNB-induced colitis) was −28.6%. For the same compound, the “myeloperoxidase levels, change compared to TNB control” value (TNB-induced colitis) was −33.1%, the “score, change compared to TNB control” value (TNB-induced colitis) was −35.2% and the “effectiveness in ulcerative colitis (mucosal inflammation and symptomatology scores)” value (human ulcerative colitis) was “more effective than 5-ASA”. The healing time (human ulcerative colitis) was “dramatically reduced compared to 5-ASA”, the “duration of the effect on TXB2 plasma levels” value (TXB2 plasma levels) was 24 h and the “TXB2 ng/ml ± S.E.” value (TXB2 plasma levels) was 14.3 ± 1.3 ng/mL. The “% inhibition of TXB2 plasma levels” value (TXB2 plasma levels; 0.75 h) was 93.2%, the “% inhibition of TXB2 plasma levels” value (TXB2 plasma levels; 1.5 h) was 90.8% and the “% inhibition of TXB2 plasma levels” value (TXB2 plasma levels; 3.0 h) was 91.4%. For the same compound, the “% inhibition of TXB2 plasma levels” value (TXB2 plasma levels; 24.0 h) was 49.2%, the inhibition at 100 mg/kg (TXB2 plasma levels) was 91.8% and the “reduction in the number of ulcers” value ([4]; scheme no. 1 (acute phase, T=0, +1 and 2 days), MED 15 100 mg/Kg per os, vs indomethacin controls) was 44.3%. For the same compound, the score ([4]; scheme no. 1, MED 15 100 mg/Kg per os, indomethacin controls 7.62±1.84) was 4.63±2.73, the “tissutal levels of MPO” value ([4]; scheme no. 1, after MED 15 treatment 100 mg/Kg per os) was “diminution” and the “decrease of score value” ([4]; scheme no. 2 (prolonged), MED 15 100 mg/Kg per os) was 58.4%. For the same compound, the “decrease in number of ulcers” value ([4]; scheme no. 2 (prolonged, T=0, +1, +2, +5, +6, +7 days), MED 15 100 mg/Kg per os) was 86.1%.
